Data from patent publication US5220016A, “Synthesis of navelbine analogs” (priority 1991, dated 1993).
Values after ≈ are worked out from the molar mass of the structure shown. Read-outs that look alike come from different tables or passages of the source.

Legend:
[1] = 72 hr cytotoxicity assay; in vitro antitumor activity; type: cell-based; details: for in vitro antitumor activity: in words, compared with vinblastine
Description: The 18'(S)-epimer was tested in vitro for antitumor activity in comparison with the 18'(R)-epimer and vinblastine. IC50 's were determined in a 72 hr cytotoxicity assay.

[2] = cited from earlier work
[3] = 72 hr cytotoxicity assay, in vitro, cell line not given, read-out: IC50
[4] = compared with vinblastine and vincristine (Fellous et al., 1989)

For `CC[C@]12C=CCN3CC[C@@]4(c5cc([C@]6(C(=O)OC)C[C@@H]7CCCN(Cc8c6[nH]c6ccccc86)C7)c(OC)cc5N(C)[C@H]4[C@@](O)(C(=O)OC)[C@@H]1OC(C)=O)[C@@H]32` [18'(R)-Dihydrodesethylnavelbine, (+)-18'R-4'-Desethyl-4'-deshydroxy-7'-norvinblastine], the IC50 ([1]; 72 hr cytotoxicity assay, in vitro, cell line not given) was “no activity” and the “in vitro antitumor activity” value [1] was “inactive”.
For `CC[C@]12C=CCN3CC[C@@]4(c5cc([C@@]6(C(=O)OC)C[C@@H]7CCCN(Cc8c6[nH]c6ccccc86)C7)c(OC)cc5N(C)[C@H]4[C@@](O)(C(=O)OC)[C@@H]1OC(C)=O)[C@@H]32` [18'(S)-Dihydrodesethylnavelbine, (+)-18'S-4'-Desethyl-4'-deshydroxy-7'-norvinblastine], the IC50 ([1]; 72 h) was 0.5 ng/mL (≈ 0.664 nM) and the “in vitro antitumor activity” value [1] was “comparable to vinblastine”.
For `CCC1=C[C@@H]2CN(C1)Cc1c([nH]c3ccccc13)[C@@](C(=O)OC)(c1cc3c(cc1OC)N(C)[C@H]1[C@@](O)(C(=O)OC)[C@H](OC(C)=O)[C@]4(CC)C=CCN5CC[C@]31[C@@H]54)C2` [Navelbine], the IC50 [1, 3] is listed as 5 ng/mL (≈ 6.42 nM), the cytotoxicity ([2]; compared with Vinblastine) is listed as “decreased cytotoxicity compared with Vinblastine” and the antitumor activity [2, 4] is listed as “broader antitumor activity”. The “neurotoxicity and other side effects” value [2, 4] was “lower neurotoxicity and other side effects”.
Work on `CC[C@]1(O)C[C@@H]2CN(CCc3c([nH]c4ccccc34)[C@@](C(=O)OC)(c3cc4c(cc3OC)N(C)[C@H]3[C@@](O)(C(=O)OC)[C@H](OC(C)=O)[C@]5(CC)C=CCN6CC[C@]43[C@@H]65)C2)C1` [Vinblastine] yielded an IC50 [1, 3] of 0.5 ng/mL (≈ 0.617 nM).
